Patent EP4818172A1, “ASCORBIC ACID DERIVATIVES AND COSMETIC CONTAINING SAME” (Seiwa Kasei Co., Ltd., priority 2023, dated 2025)

Legend:
[1] = system: Normal human dermal fibroblasts; experiment: Collagen production promoting effect (ELISA of free collagen in supernatant); assay type: cell-based; settings: sample at 10 mM or less, cultured 48 hours, % of control group (100%), N=3
Procedure: Normal human dermal fibroblasts were prepared in D-MEM containing 5% (v/v) fetal bovine serum to a cell density of 2.5 × 10^4 cell s /well, and then pre-incubated for 24 hours on a 96-well plate. After removing the medium, samples prepared to a predetermined concentration in D-MEM containing 5% (v/v) fetal bovine serum were added to each well and cultured for 48 hours. After the culture was completed, the amount of free collagen in the supernatant was quantified by ELISA. Measurements were performed in triplicate (N=3).
The amount of collagen produced when the sample was measured at a concentration of 10 mM or less was compared with that of the control group, and the results (% values when the control group was set to 100%) are shown in Table 17 based on the following criteria. • <100%: ± • 100-140%: + • 140%<: ++ [Table 17]

[2] = system: Normal human epidermal keratinocytes; experiment: Antioxidant effect: ROS production inhibition after H2O2 (DCFHDA probe); assay type: cell-based; settings: sample at 10 mM or less, 24 hours, then 0.2 mM H2O2 for 2 hours, N=4
Procedure: Normal human epidermal keratinocytes were seeded onto a 96-well plate using KG2 medium at a cell density of 2.0 × 10^4 cells/well. After 24 hours of pre-incubation, samples adjusted to a predetermined concentration in KG2 medium were added to each well. After 24 hours of incubation, the medium was removed, followed by washing with HBSS(-) and the incorporation of the ROS-reactive fluorescent probe DCFHDA for 30 minutes. The cells were again washed with HBSS(-), treated with 0.2 mM H2O2, and incubated for 2 hours. The fluorescence intensity was measured, and the amount of ROS produced per unit protein was calculated by dividing the fluorescence intensity by the amount of protein quantified by the BCA method, resulting in an analytical value of 1. Furthermore, the amount of ROS production calculated without adding the sample adjusted to a predetermined concentration using the above test method was set to analytical value 2; and the amount of ROS production calculated without adding the sample or 0.2 mM H2O2 was set to analytical value 3.
ROS production inhibition rate (%) was calculated using the following formula. The higher the ROS production inhibition rate, the greater the antioxidant effect can be evaluated to be.
ROS production inhibition rate (%) = [(analysis value 2) - (analysis value 1)] / [(analysis value 2) - (analysis value 3)] × 100
The ROS production inhibition rate when the sample was measured at a concentration of 10 mM or less was evaluated as follows. Note that the measurement was performed in N=4. • <20%: + • 20-40%: ++ • 40%<: +++ [Table 21]

[3] = Stability test -2: residual rate in cream of pH 7 or 9 stored at 50°C; assay type: physicochemical; settings: cream with 4.0 W/W% derivative
Procedure: (§1) For each of the samples of Synthesis Examples 9 to 32, (a) and (b) shown in Table 12 were each heated and mixed. After cooling, (c) shown in Table 12 was added to prepare a cream with a pH of 7 or 9. The sample was stored at 50°C for 4 weeks, and the residual rate was determined in the same manner as in Test Example 1 and evaluated according to the criteria described below. The odor and coloration were also evaluated according to the same method and criteria as in Test Example 1. The results regarding the residual rate are shown in Tables 13 and 14, and the results regarding the odor and coloration are shown in Tables 15 and 16.
• ⊚: 95% or more • ○: 85% or more, less than 95% • ×: Less than 85% [Table 12]

[4] = Stability test -2: odor and coloration of cream stored at 50°C; assay type: physicochemical; settings: Test Example 2, cream stored at 50°C, total score of 10 panelists
Procedure: For each of the samples of Synthesis Examples 1 to 6, 1% aqueous solutions were adjusted to pH 3, 5, 7, 8, and 9 with a dilute potassium hydroxide aqueous solution, and then placed in 50 mL screw tubes and • 2: Color changes compared to immediately after preparation. • 1: Strongly colored compared to immediately after preparation. Based on the results of the above evaluation, the following classification was made: • ○: Total score of 10 panelists is 25 or more • △: Total score of 10 panelists is 16-24 • ×: The total score of 10 panelists is 15 or less [Table 10]
as §1

[5] = system: Normal human dermal fibroblasts (NHDF); experiment: Hyaluronic acid production promoting effect (ELISA of supernatant); assay type: cell-based; settings: sample at 10 mM or less in serum-free D-MEM, cultured 48 hours, % of control group (100%), N=3
Method in brief: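 NHDF pre-incubated 24 h in D-MEM/5% FBS, then exposed to samples (10 mM or less) in serum-free D-MEM for 48 h. Supernatant hyaluronic acid measured by ELISA, triplicate. Output expressed as % of untreated control (control = 100%), graded ±/+/++ at <100%, 100-120%, >120%.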

Residual Rate After 2 weeks ([3]; pH7, stored at 50°C)	Residual Rate After 4 weeks ([3]; pH7, stored at 50°C)	Residual Rate After 2 weeks ([3]; pH9, stored at 50°C)	Residual Rate After 4 weeks ([3]; pH9, stored at 50°C)	Odor After 4 weeks [4]	Compound	Collagen production-promoting effect [1]	Antioxidant effect (ROS production inhibition rate) [2]	Coloration After 2 weeks [4]	Odor After 2 weeks [4]	Coloration After 4 weeks [4]	Hyaluronic acid production-promoting effect [5]
–	–	–	–	–	O=C1O[C@H]([C@@H](O)CO)C(O)=C1OCC(O)CO (stereo partly shown) [2-O-glyceryl ascorbic acid, reference compound]	+ (100-140%)	+ (<20%)	–	–	–	–
–	–	–	–	–	O=C1O[C@H]([C@@H](O)CO)C(OCC(O)CO)=C1O (stereo partly shown) [3-O-glyceryl ascorbic acid, reference compound]	+ (100-140%)	+ (<20%)	–	–	–	–
⊚ (95% or more)	⊚ (95% or more)	⊚ (95% or more)	⊚ (95% or more)	Δ	CCCC(=O)OCC(O)C1OC(=O)C2=C1OCCCCO2 (stereo not shown) [synthesis example 9, 6-O-butanoyl-2,3-O-(1,4-butanediyl) ascorbic acid]	+ (100-140%)	++ (20-40%)	○ (Total score of 10 panelists is 25 or more)	○ (Total score of 10 panelists is 25 or more)	○ (Total score of 10 panelists is 25 or more)	++ (120%<)
⊚ (95% or more)	⊚ (95% or more)	⊚ (95% or more)	⊚ (95% or more)	Δ	CCCC(=O)OCC(OC(=O)CCC)C1OC(=O)C2=C1OCCCCO2 (stereo not shown) [synthesis example 10, 5,6-O-dibutanoyl-2,3-O-(1,4-butanediyl) ascorbic acid]	++ (140%<)	+ (<20%)	○ (Total score of 10 panelists is 25 or more)	○ (Total score of 10 panelists is 25 or more)	○ (Total score of 10 panelists is 25 or more)	++ (120%<)
⊚ (95% or more)	⊚ (95% or more)	⊚ (95% or more)	⊚ (95% or more)	Δ	CCCCCCCCCCCC(=O)OCC(O)C1OC(=O)C2=C1OCCCCO2 (stereo not shown) [synthesis example 13, 6-O-lauroyl-2,3-O-(1,4-butanediyl) ascorbic acid]	–	+ (<20%)	○ (Total score of 10 panelists is 25 or more)	○ (Total score of 10 panelists is 25 or more)	○ (Total score of 10 panelists is 25 or more)	++ (120%<)
⊚ (95% or more)	⊚ (95% or more)	⊚ (95% or more)	○ (85% or more, less than 95%)	Δ	CCCCCCCCCCCC(=O)OCC(OC(=O)CCCCCCCCCCC)C1OC(=O)C2=C1OCCCCO2 (stereo not shown) [synthesis example 14, 5,6-O-dilauroyl-2,3-O-(1,4-butanediyl) ascorbic acid]	–	+ (<20%)	○ (Total score of 10 panelists is 25 or more)	○ (Total score of 10 panelists is 25 or more)	○ (Total score of 10 panelists is 25 or more)	++ (120%<)
⊚ (95% or more)	⊚ (95% or more)	⊚ (95% or more)	⊚ (95% or more)	Δ	CC(C)CCCCCCCCCCCCCCC(=O)OC[C@H](O)[C@H]1OC(=O)C2=C1OCCCCO2 [synthesis example 17, 6-O-isostearoyl-2,3-O-(1,4-butanediyl) ascorbic acid]	++ (140%<)	+ (<20%)	○ (Total score of 10 panelists is 25 or more)	○ (Total score of 10 panelists is 25 or more)	○ (Total score of 10 panelists is 25 or more)	++ (120%<)
⊚ (95% or more)	⊚ (95% or more)	⊚ (95% or more)	⊚ (95% or more)	Δ	CCCCCCCC(=O)OCC(OC(=O)CCCCCCC)C1OC(=O)C2=C1OCCCO2 (stereo not shown) [synthesis example 23, 5,6-O-dioctanoyl-2,3-O-(1,3-propanediyl) ascorbic acid]	++ (140%<)	+ (<20%)	○ (Total score of 10 panelists is 25 or more)	○ (Total score of 10 panelists is 25 or more)	○ (Total score of 10 panelists is 25 or more)	+ (100-120%)
⊚ (95% or more)	⊚ (95% or more)	⊚ (95% or more)	⊚ (95% or more)	Δ	CCCCCCCCCCCCCCCC(=O)OCC(O)C1OC(=O)C2=C1OCCCCO2 (stereo not shown) [synthetic example 15, 6-O-palmitoyl-2,3-O-(1,4-butanediyl) ascorbic acid]	++ (140%<)	+ (<20%)	○ (Total score of 10 panelists is 25 or more)	○ (Total score of 10 panelists is 25 or more)	○ (Total score of 10 panelists is 25 or more)	++ (120%<)
